Laboratory results as given in patent US6468537B1, “Localization of major peptide autoepitopes for nucleosome specific T cells of systemic lupus erythematosus” (The Board of Trustees of Northwestern University, priority 1999, dated 2002).

How the values were obtained:
[1] = tested on: pathogenic Th clones from SNF1 mice; assay: Stimulation of nucleosome-specific pathogenic Th clones from SNF1 mice by eluted/synthetic peptides; assay type: cell-based, mouse; conditions: A20 or splenic B+Mφ as APC
Method: Fresh splenic, CD4^+ T cells (5×10^5/well) were co-cultured in triplicate wells at an initial concentration of 5×10^5 cells per well, with 10^6 cells per well of either irradiated B+Mφ or mitomycin-C treated A20 APC. Varying concentrations of either control or test peptides were added and the cultures were adjusted to 200 microliters final volume of HL-1 serum-free medium (Hycor Biomedical Inc., Irvine, Calif.) cultures were incubated for 96 hours in flat bottom 96-well plates, and at 18 hours prior to harvesting the cells, 1 microcurie of 3H-Thymidine was added to each well. The incorporated radioactivity was measured by scintillation counting. The Stimulation Index (SI) was calculated by dividing the mean counts per minute (cpm) incorporated in co-cultures of T cells and APC with test peptide by the mean cpm incorporated in control peptide co-cultures. In the case of cytokine assays, experiments were carried out as described for the proliferation assays except that the culture supernatants were removed from duplicate co-culture wells after 24-46 hours of incubation and cytokine assays were performed.
An aliquot of 50 microliters from each HPLC fraction was assayed for stimulating ability as described above. Four characterized Th clones were used as indicators of cytokine secretion (IL-2 and/or IL-4) in response to the peptide fractions, using A20 or splenic B+Mψ as APCs (Adams, et al., 1991, Proc. Natl. Acad. Sci. USA 88:11271-11275; Shi, et al., 1998, J. Exp. Med. 187:367-378). […] Only two out of one hundred fractions tested were able to stimulate Th cell clones. […] The latter was further separated as described, and tested for active fractions of HPLC purified peptides.. Three naturally processed and presented, stimulatory epitopes were identified using these procedures. The sequences of the peptides are as follows: SQKEEEEGAQREKE (EP-1, SEQ ID NO: 23); DWMEEEHGAQREKE (EP-2, SEQ ID NO: 24); and […] (EP-3, or H522-42, SEQ ID NO: 25). The first two peptides were homologous to sequences in a transcription factor, BRN-3, which is identical in chicken, mice and humans (GenBank). […] EP-1 is highly homologous to EP-2, but it also matched a sequence in cytomegalovirus envelope protein at aa position 57-70. Most likely these peptides are derived from some transcription factor in the chromatin that was incubated with the APC. The third sequence (EP-3) was derived from histone H5 (aa position 22-42) in chicken nucleosome, which is homologous to histone H1 sequence of mice and humans at amino acid position 22-42 ([…], SEQ ID NO:26). […] Therefore, the mouse H122-42 is the autoantigenic peptide in mice and is also referred to herein as EP-3. Nested sequences and unrelated sequences that were obtained in the active fractions from the eluates were also synthesized and re-tested.

SNF1 mice = assay: Acceleration of SLE-associated nephritis by immunization with eluted peptides in adjuvant; assay type: in vivo, mouse
From the text: The animals received three more injections at two weeks interval with 50 micrograms of either an eluted peptide or the control peptide absorbed on alum (Pierce Chemical Co., Rockford, Ill.).

[2] = tested on: Th clones 1D12, 5E9, 3F6, 1G1; assay: Helper assay: Th clones co-cultured with splenic B cells from SNF1 mice in presence of peptide; assay type: cell-based, mouse; conditions: responder Th clones 5E9 and 3F6
Method: IgG autoantibodies to ssDNA, dsDNA, histones, and nucleosomes were quantitated using an ELISA as described previously (Mohan, et al., 1995, J. Immunol., 154:1470-1480; Mohan, et al., 1993, J. Exp. Med. 177:1367-1381; Burlingame, et al., 1993, J. Clin. Invest. 91:1687-1696; Losman, et al., 1992, J. Immunol., 148:1561-1569). Sera were diluted 1:100 and heat-inactivated before use. Serum from normal BALB/c mice were used as negative control. Anti-DNA mAbs 564 and 205 were used to generate standard curves (Adams, et al., 1991, Proc. Natl. Acad. Sci. USA 88:11281-11275; Mohan, et al., 1995, J. Immunol., 154:1470-1480; Mohan, et al., 1993, J. Exp. Med. 177:1367-1381; Sainis and Datta, 1988, J. Immunol. 140:2215-2224). For IgG autoantibodies to ssDNA, histones and nucleosomes, 1 unit per milliliter was considered to be equivalent to the activity of one microgram per milliliter of mAb 564, which recognizes all three autoantigens (Mohan, et al., 1995, J. Immunol., 154:1470-1480; Mohan, et al., 1993, J. Exp. Med. 177:1367-1381), and for IgG anti-dsDNA, 1 unit per milliliter was equivalent to the binding of 0.6 micrograms per milliliter of the mAb 205.
After seven days of co-culture, the supernatants were assayed for IgG antibodies to the autoantigens (ds-DNA, ss-DNA, nucleosome, and histone) by ELISA. […]

STDHPKYSDMIVAAIQAEKNR (Histone fragment) [H122-42]
stimulation of pathogenic Th clones [1]: equivalent to the chicken H52242 peptide
stimulation of pathogenic Th clones ([1]; listed as EP-3): stimulatory
development of severe nephritis (SNF1 mice; by 28 weeks of age): all the EP-3 immunized mice developed severe nephritis
onset/rate of disease relative to control group (CFA alone or OVA peptide in CFA) (SNF1 mice; immunization from 12 weeks): developed severe nephritis earlier
time to severe nephritis in some immunized animals (SNF1 mice; just after the first booster immunization): 2-3 weeks
mice succumbed to severe lupus nephritis (SNF1 mice; within four weeks of the first injection, peptide in CFA): Eighty percent
augmentation of autoantibody-inducing help [2]: almost as much as the whole nucleosome
